Molecules are shown by their SMILES. “And” between values parts separate entries of the source, which are not always exact repeats. Equal entries are not always repeated.

One series in a line: clinical. The note with it: human, in vivo, oral, 200 mg.
For series [1] the following is noted: Moore et al., cited from earlier work.
A short description of series [2]: Applicant's meta-analysis of reported edema rates in osteoarthritic populations by celecoxib dose. As to conditions: 400 mg/day.
The nature of series [3]: Incidence of edema in SYMPHONY claims / ACC registry database. It is filed as in vivo, human. The text has this: To support this study a database was created which contains: 1) Claims data from SYMPHONY DATABASE® pertaining to anti-hypertensives, Statins, COX-2's, and NSAIDS. The data span the most recent 36 months and 2) registry data from the ACC reporting Blood Pressure (systolic/diastolic), peripheral edema flags (yes, no, missing), Heart rate, LDL, Glucose Level, Ejection fraction, GFR, Height, Weight, BJVII, and the like.
SYMPHONY DATABASE® contains true patient level data—All Data Sources be it RX or JVIX claims is tied back to individual patients which is tracked and then encrypted based on first name, last name, gender, DOB and zip code to give an accurate picture of patient level informatics year over year regardless of insurance changes.
The properties for the SYMPHONY DATABASE® are: 1) Takes CELEBREX® antihypertensive, AH, Statin or NSAID or have OA, RA or some other form of arthritis, 36 months, 2) Time Frame=Jan. 1, 2012-Dec. 31, 2014 (3 years), 3) Number of files=201, 4) Size=561 GB zipped (−2.5 TB), 5) Unique Patients=162 million, 6) Patients on CELEBREX®=4.3 million, 7) Patients that have OA=16.3 million (15.4 million only OA), 8) Patients that have RA=2.3 million (1.4 million only RA).
The properties of the ACC registry are: 1) Have 3+BP readings, 2) Time Frame=Jan. 1, 2012-Dec. 31, 2014 (3 years), 3) Number of files=2, 4) Size=590 MB, 51 MB, 5) Unique Patients=1.58 million, 6) Patients with BP readings=1.58 million, 7) Patients with Edema Flag True=870 K.
The edema rate was then measured in the aforementioned database. The incidence of edema was higher for OA patients than RA, other Arthritis, or Arthritis free patients. […] Overall OA seems to be susceptible to CELEBREX® induced edema. The results confirmed the meta-analysis shown above. […]

The conditions of series [4]: Table 1 of CELEBREX Package Insert; cited from earlier work.
The nature of series [5]: Celecoxib AUC from combined published pharmacokinetic data.
The mark [6] stands for this setting: no arthritis patients with CELEBREX
Where [7] appears, read: other arthritis patients with CELEBREX

`Cc1ccc(-c2cc(C(F)(F)F)nn2-c2ccc(S(N)(=O)=O)cc2)cc1` [celecoxib] registered an AUC in “clinical” of 6440 ng·h/mL. Further, in series [1] (clinical trials of celecoxib), the “incidence of edema at any site, usual” value is given as “about 3%”. Also, the “incidence of edema in two trials” value in series [1] (two trials) is 23% and 38%. In series [2], the “edema event rate (upper limit and average) versus 100 or 200 mg/day dose” value is listed as “more than twice as high”. For the same compound, in series [3] (Days of Therapy 60-120), the incidence of edema entry is on record as “(18.1%)”. In series [3] (Days of Therapy 120-180), the incidence of edema result is “(19.3%)”. Moreover, in series [3] (Days of Therapy 180-240), the incidence of edema result is “(21.6%)”. The incidence of edema entry in series [3] (Days of Therapy <60) is “(19.4%)”. Besides, the incidence of edema entry in series [3] (Days of Therapy >240) is on record as “(26.7%)”. For the same compound, in series [3] (OA patients with CELEBREX), the “cases of edema (%), OA” value is reported as “(6.0%)” and the “cases of edema, OA” value came out at 254. Besides, in series [3] (RA patients with CELEBREX), the “cases of edema (%), RA” value is “(3.3%)” and the “cases of edema, RA” value came out at 82. For the same compound, in series [3] (setting [6]), the “cases of edema (%), No Arthritis” value is on record as “(0.4%)” and the “cases of edema, No Arthritis” value is listed as 451. Besides, in series [3] (setting [7]), the “cases of edema (%), Other Arthritis” value is “(4.1%)” and the “cases of edema, Other Arthritis” value stood at 1702. For the same compound, the “patients treated that develop edema” value in series [4] is 2.1%. In series [5] (100 mg), the “AUC Max.” value is 3418 ng·h/mL, the “AUC Med.” value turned out to be 3395 ng·h/mL and the “AUC Min.” value amounted to 2465 ng·h/mL. Also, in series [5] (200 mg), the “AUC Max.” value was 6791 ng·h/mL and the “AUC Min.” value worked out at 5972 ng·h/mL.
Turning to `O=C(O)Cc1ccccc1Nc1c(Cl)cccc1Cl` [diclofenac], the “patients treated that develop edema” value in series [4] is reported as 1.0%.
Consider `CC(C)Cc1ccc(C(C)C(=O)O)cc1` (centres unmarked) [ibuprofen], for which the “patients treated that develop edema” value in series [4] was 3.5%.
As to `COc1ccc2cc([C@H](C)C(=O)O)ccc2c1` [naproxen], the “patients treated that develop edema” value in series [4] is on record as 2.1%.
